From US12723063B2, “GIPR-agonist compounds” (Eli Lilly and Company, priority 2019, dated 2026) come the findings set out here.

*1 amine or outer side, *2 acyl side, *3 side chain or, on linkers, in order; H or OH if unused. Where a SMILES comes first, the peptide text is derived from it. Side-chain parts run from the residue outwards. [ ]: non-standard residue; d: D form. The star is where a group is joined. C20 diacid = O=C(O)CCCCCCCCCCCCCCCCCCC(=O)*; C18 diacid = O=C(O)CCCCCCCCCCCCCCCCC(=O)*; αMePhe(2-F) = C[C@](N)(Cc1ccccc1F)C(=O)O; γGlu = O=C(O)[C@H](CCC(=O)[*:2])N[*:1]; αMeL = CC(C)C[C@](C)(N)C(=O)O; AEEA = NCCOCCOCC(=O)O; Aib = CC(C)(N)C(=O)O

For assay [1], the target named is T1, human GLP-1 receptor (GLP-1R) (Homo sapiens, UniProt P43220).
T1 construct: expressed in transfected cells; host or cells: HEK293
T1 sequence (P43220 24-463): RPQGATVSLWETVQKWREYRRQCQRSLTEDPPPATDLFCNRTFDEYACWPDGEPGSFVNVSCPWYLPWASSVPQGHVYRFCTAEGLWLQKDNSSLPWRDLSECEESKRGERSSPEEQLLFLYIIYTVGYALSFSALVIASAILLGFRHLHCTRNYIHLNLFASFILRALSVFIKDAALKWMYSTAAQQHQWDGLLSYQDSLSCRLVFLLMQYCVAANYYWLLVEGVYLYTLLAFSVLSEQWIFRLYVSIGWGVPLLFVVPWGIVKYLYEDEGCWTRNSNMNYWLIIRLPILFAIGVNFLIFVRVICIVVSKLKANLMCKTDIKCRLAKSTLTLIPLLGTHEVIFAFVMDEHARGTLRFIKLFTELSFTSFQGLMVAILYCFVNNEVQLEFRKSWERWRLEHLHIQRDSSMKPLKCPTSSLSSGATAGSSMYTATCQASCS
In words: cAMP functional assay (HTRF) in HEK293 cells in presence of 0.1% casein. The class given is cell-based. The settings on record: HEK293 cells expressing human GLP-1R, geometric mean, read-out: hGLP1R cAMP Rel EC50 nM (SEM, n).

Assay [2] concerns the target T2, human glucose-dependent insulinotropic peptide receptor (GIPR) (Homo sapiens, UniProt P48546).
T2 construct: expressed in transfected cells; host or cells: HEK293
T2 sequence (P48546 22-466): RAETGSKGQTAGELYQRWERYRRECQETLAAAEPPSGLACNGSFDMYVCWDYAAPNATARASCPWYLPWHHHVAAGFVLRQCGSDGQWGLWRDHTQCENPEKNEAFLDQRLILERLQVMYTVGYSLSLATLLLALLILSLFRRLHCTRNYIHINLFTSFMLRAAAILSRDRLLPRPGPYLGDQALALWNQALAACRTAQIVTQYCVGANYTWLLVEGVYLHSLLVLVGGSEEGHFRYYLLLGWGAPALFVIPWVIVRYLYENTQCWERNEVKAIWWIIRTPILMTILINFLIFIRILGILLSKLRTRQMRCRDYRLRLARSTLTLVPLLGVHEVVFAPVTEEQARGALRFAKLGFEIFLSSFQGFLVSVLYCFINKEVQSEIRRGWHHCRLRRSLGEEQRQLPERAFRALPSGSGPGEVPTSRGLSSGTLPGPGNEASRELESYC
Described as above. The class given is cell-based. As to conditions: HEK293 cells expressing human GIPR, geometric mean, read-out: hGIPR cAMP Rel EC50 nM (SEM, n).

The term EC50 denotes the concentration at which the effect is half-maximal.

Consider `CC[C@H](C)[C@H](NC(=O)[C@H](CO)NC(=O)[C@H](Cc1ccc(O)cc1)NC(=O)[C@H](CC(=O)O)NC(=O)[C@H](CO)NC(=O)[C@@H](NC(=O)[C@H](CC(C)C)NC(=O)[C@@H](NC(=O)CNC(=O)[C@H](CCC(=O)O)NC(=O)[C@@H](C)NC(=O)[C@@H](N)Cc1ccc(O)cc1)[C@@H](C)O)[C@@H](C)CC)C(=O)N[C@@H](CC(C)C)C(=O)N[C@@H](CC(C)C)C(=O)N[C@@H](CC(=O)O)C(=O)N[C@@H](CCCCN)C(=O)N[C@@H](CCCCNC(=O)COCCOCCNC(=O)COCCOCCNC(=O)CC[C@H](NC(=O)CCCCCCCCCCCCCCCCC(=O)O)C(=O)O)C(=O)N[C@@H](C)C(=O)N[C@@H](CCC(N)=O)C(=O)NC(C)(C)C(=O)N[C@@H](CC(=O)O)C(=O)N[C@@H](Cc1ccccc1)C(=O)N[C@H](C(=O)N[C@@H](CC(N)=O)C(=O)N[C@@H](Cc1c[nH]c2ccccc12)C(=O)N[C@@H](CC(C)C)C(=O)N[C@@H](CC(C)C)C(=O)N[C@@H](C)C(=O)N[C@@H](CCC(N)=O)C(=O)NCC(=O)N1CCC[C@H]1C(=O)N[C@@H](CO)C(=O)N[C@@H](CO)C(=O)NCC(=O)N[C@@H](C)C(=O)N1CCC[C@H]1C(=O)N1CCC[C@H]1C(=O)N1CCC[C@H]1C(=O)N[C@@H](CO)C(N)=O)C(C)C` [Example 32] (H-Y[dA]EGTLISDYSILLDKK([AEEA-AEEA-γGlu-C18 diacid])AQ[Aib]DFVNWLLAQGPSSGAPPPS-NH2), for which the results for the EC50 in assay [1] and in assay [2] were > 5000 nM and 0.00469 nM, respectively.

Take `CC[C@H](C)[C@H](NC(=O)[C@H](CO)NC(=O)[C@H](Cc1ccc(O)cc1)NC(=O)[C@H](CC(=O)O)NC(=O)[C@H](CO)NC(=O)[C@@H](NC(=O)[C@](C)(Cc1ccccc1F)NC(=O)[C@@H](NC(=O)CNC(=O)[C@H](CCC(=O)O)NC(=O)[C@H](C)NC(=O)[C@@H](Cc1ccc(O)cc1)NC(C)=O)[C@@H](C)O)[C@@H](C)CC)C(=O)N[C@@H](C)C(=O)N[C@@H](CC(C)C)C(=O)N[C@@H](CC(=O)O)C(=O)N[C@@H](CCCCN)C(=O)N[C@@H](CCCCNC(=O)COCCOCCNC(=O)COCCOCCNC(=O)CC[C@H](NC(=O)CCCCCCCCCCCCCCCCCCC(=O)O)C(=O)O)C(=O)N[C@@H](Cc1c[nH]cn1)C(=O)N[C@@H](CCC(N)=O)C(=O)NC(C)(C)C(=O)N[C@@H](CCC(=O)O)C(=O)N[C@@H](Cc1ccccc1)C(=O)N[C@H](C(=O)N[C@@H](CC(N)=O)C(=O)N[C@@H](Cc1ccc(O)cc1)C(=O)N[C@@H](CC(C)C)C(=O)N[C@@H](CC(C)C)C(=O)N[C@@H](CCC(=O)O)C(=O)NCC(=O)NCC(=O)N1CCC[C@H]1C(=O)N[C@@H](CO)C(=O)N[C@@H](CO)C(=O)NCC(=O)N[C@@H](C)C(=O)N1CCC[C@H]1C(=O)N1CCC[C@H]1C(=O)N1CCC[C@H]1C(=O)N[C@@H](CO)C(N)=O)C(C)C` [Example 33] (Ac-[dY]AEGT[αMePhe(2-F)]ISDYSIALDKK([AEEA-AEEA-γGlu-C20 diacid])HQ[Aib]EFVNYLLEGGPSSGAPPPS-NH2): the concentration giving a half-maximal response (EC50) in assay [1] was > 5000 nM; in assay [2], 0.0551 nM.

In the case of `CC[C@H](C)[C@H](NC(=O)[C@H](CO)NC(=O)[C@H](Cc1ccc(O)cc1)NC(=O)[C@H](CC(=O)O)NC(=O)[C@H](CO)NC(=O)[C@@H](NC(=O)[C@](C)(Cc1ccccc1F)NC(=O)[C@@H](NC(=O)CNC(=O)[C@H](CCC(=O)O)NC(=O)C(C)(C)NC(=O)[C@@H](N)Cc1ccc(O)cc1)[C@@H](C)O)[C@@H](C)CC)C(=O)N[C@@H](C)C(=O)N[C@@H](CC(C)C)C(=O)N[C@@H](CC(=O)O)C(=O)N[C@@H](CCCCN)C(=O)N[C@@H](CCCCNC(=O)COCCOCCNC(=O)COCCOCCNC(=O)CC[C@H](NC(=O)CCCCCCCCCCCCCCCCCCC(=O)O)C(=O)O)C(=O)N[C@@H](Cc1c[nH]cn1)C(=O)N[C@@H](CCC(N)=O)C(=O)NC(C)(C)C(=O)N[C@@H](CCC(=O)O)C(=O)N[C@@H](Cc1ccccc1)C(=O)N[C@H](C(=O)N[C@@H](CC(N)=O)C(=O)N[C@@H](Cc1ccc(O)cc1)C(=O)N[C@@H](CC(C)C)C(=O)N[C@@H](CC(C)C)C(=O)N[C@@H](C)C(=O)N[C@H](C(=O)NCC(=O)N1CCC[C@H]1C(=O)N[C@@H](CO)C(=O)N[C@@H](CO)C(=O)NCC(=O)N[C@@H](C)C(=O)N1CCC[C@H]1C(=O)N1CCC[C@H]1C(=O)N1CCC[C@H]1C(=O)N[C@@H](CO)C(N)=O)[C@@H](C)O)C(C)C` [Example 34] (H-Y[Aib]EGT[αMePhe(2-F)]ISDYSIALDKK([AEEA-AEEA-γGlu-C20 diacid])HQ[Aib]EFVNYLLATGPSSGAPPPS-NH2), the EC50 is 462 nM in assay [1] and 0.0177 nM in assay [2].

`CC[C@H](C)[C@H](NC(=O)[C@H](CO)NC(=O)[C@H](Cc1ccc(O)cc1)NC(=O)[C@H](CC(=O)O)NC(=O)[C@H](CO)NC(=O)[C@@H](NC(=O)[C@](C)(CC(C)C)NC(=O)[C@@H](NC(=O)CNC(=O)[C@H](CCC(=O)O)NC(=O)C(C)(C)NC(=O)[C@@H](N)Cc1ccc(O)cc1)[C@@H](C)O)[C@@H](C)CC)C(=O)N[C@@H](C)C(=O)N[C@@H](CC(C)C)C(=O)N[C@@H](CC(=O)O)C(=O)N[C@@H](CCCCN)C(=O)N[C@@H](CCCCNC(=O)COCCOCCNC(=O)COCCOCCNC(=O)CC[C@H](NC(=O)CCCCCCCCCCCCCCCCCCC(=O)O)C(=O)O)C(=O)N[C@@H](Cc1c[nH]cn1)C(=O)N[C@@H](CCC(N)=O)C(=O)NC(C)(C)C(=O)N[C@@H](CCC(=O)O)C(=O)N[C@@H](Cc1ccccc1)C(=O)N[C@H](C(=O)N[C@@H](CC(N)=O)C(=O)N[C@@H](Cc1ccc(O)cc1)C(=O)N[C@@H](CC(C)C)C(=O)N[C@@H](CC(C)C)C(=O)N[C@@H](C)C(=O)N[C@H](C(=O)NCC(=O)N1CCC[C@H]1C(=O)N[C@@H](CO)C(=O)N[C@@H](CO)C(=O)NCC(=O)N[C@@H](C)C(=O)N1CCC[C@H]1C(=O)N1CCC[C@H]1C(=O)N1CCC[C@H]1C(=O)N[C@@H](CO)C(N)=O)[C@@H](C)O)C(C)C` [Example 35] (H-Y[Aib]EGT[αMeL]ISDYSIALDKK([AEEA-AEEA-γGlu-C20 diacid])HQ[Aib]EFVNYLLATGPSSGAPPPS-NH2): the EC50 in assay [1] was > 5000 nM; in assay [2], 0.0125 nM.

Consider `CC[C@H](C)[C@H](NC(=O)[C@H](CO)NC(=O)[C@H](Cc1ccc(O)cc1)NC(=O)[C@H](CC(=O)O)NC(=O)[C@H](CO)NC(=O)[C@@H](NC(=O)[C@](C)(Cc1ccccc1F)NC(=O)[C@@H](NC(=O)CNC(=O)[C@H](CCC(=O)O)NC(=O)C(C)(C)NC(=O)[C@@H](N)Cc1ccc(O)cc1)[C@@H](C)O)[C@@H](C)CC)C(=O)N[C@@H](C)C(=O)N[C@@H](CC(C)C)C(=O)N[C@@H](CC(=O)O)C(=O)N[C@@H](CCCCN)C(=O)N[C@@H](CCCCNC(=O)COCCOCCNC(=O)COCCOCCNC(=O)CC[C@H](NC(=O)CCCCCCCCCCCCCCCCCCC(=O)O)C(=O)O)C(=O)N[C@@H](Cc1c[nH]cn1)C(=O)N[C@@H](CCC(N)=O)C(=O)NC(C)(C)C(=O)N[C@@H](CC(=O)O)C(=O)N[C@@H](Cc1ccccc1)C(=O)N[C@H](C(=O)N[C@@H](CCC(=O)O)C(=O)N[C@@H](Cc1ccc(O)cc1)C(=O)N[C@@H](CC(C)C)C(=O)N[C@@H](CC(C)C)C(=O)N[C@@H](CCC(=O)O)C(=O)N[C@H](C(=O)NCC(=O)N1CCC[C@H]1C(=O)N[C@@H](CO)C(=O)N[C@@H](CO)C(=O)NCC(=O)N[C@@H](C)C(=O)N1CCC[C@H]1C(=O)N1CCC[C@H]1C(=O)N1CCC[C@H]1C(=O)N[C@@H](CO)C(N)=O)[C@@H](C)O)C(C)C` [Example 36] (H-Y[Aib]EGT[αMePhe(2-F)]ISDYSIALDKK([AEEA-AEEA-γGlu-C20 diacid])HQ[Aib]DFVEYLLETGPSSGAPPPS-NH2), for which the EC50 is 1080 nM in assay [1] and 0.0543 nM in assay [2].

Turning to `CC[C@H](C)[C@H](NC(=O)[C@H](CO)NC(=O)[C@H](Cc1ccc(O)cc1)NC(=O)[C@H](CC(=O)O)NC(=O)[C@H](CO)NC(=O)[C@@H](NC(=O)[C@](C)(Cc1ccccc1F)NC(=O)[C@@H](NC(=O)CNC(=O)[C@H](CCC(=O)O)NC(=O)C(C)(C)NC(=O)[C@@H](N)Cc1ccc(O)cc1)[C@@H](C)O)[C@@H](C)CC)C(=O)N[C@@H](C)C(=O)N[C@@H](CC(C)C)C(=O)N[C@@H](CC(=O)O)C(=O)N[C@@H](CCCCN)C(=O)N[C@@H](CCCCNC(=O)COCCOCCNC(=O)COCCOCCNC(=O)CC[C@H](NC(=O)CCCCCCCCCCCCCCCCCCC(=O)O)C(=O)O)C(=O)N[C@@H](Cc1c[nH]cn1)C(=O)N[C@@H](CCC(N)=O)C(=O)NC(C)(C)C(=O)N[C@@H](CC(=O)O)C(=O)N[C@@H](Cc1ccccc1)C(=O)N[C@H](C(=O)N[C@@H](CCC(=O)O)C(=O)N[C@@H](Cc1ccc(O)cc1)C(=O)N[C@@H](CC(C)C)C(=O)N[C@@H](CC(C)C)C(=O)N[C@@H](CCC(=O)O)C(=O)NCC(=O)NCC(=O)N1CCC[C@H]1C(=O)N[C@@H](CO)C(=O)N[C@@H](CO)C(=O)NCC(=O)N[C@@H](C)C(=O)N1CCC[C@H]1C(=O)N1CCC[C@H]1C(=O)N1CCC[C@H]1C(=O)N[C@@H](CO)C(N)=O)C(C)C` [Example 37] (H-Y[Aib]EGT[αMePhe(2-F)]ISDYSIALDKK([AEEA-AEEA-γGlu-C20 diacid])HQ[Aib]DFVEYLLEGGPSSGAPPPS-NH2), the values for the EC50 in assay [1] and in assay [2] were 61.1 nM and 0.036 nM, respectively.
